According to US20180021270A1, “METHODS FOR THE TREATMENT OF CANCER USING COENZYME Q10 IN COMBINATION WITH IMMUNE CHECKPOINT MODULATORS” (Berg LLC, priority 2016, published 2018):

Columns and labels:
human PBMCs (T cells) [1] = experiment: Viability of immune cell subpopulations within PBMCs (Annexin V/7 AAD flow cytometry); format: cell-based; conditions: 0-800 μM Coenzyme Q10, 24 hours, PHA-stimulated or unstimulated PBMCs
Protocol: (§1) PBMCs isolated from healthy human donor leukopaks were isolated and cryopreserved. To study the effect of Coenzyme Q10, cells were thawed, rested overnight and treated with or without phytohemagglutinin (PHA). PHA is a lectin protein found in plants which activates T cells by inducing mitosis. Various concentrations of Coenzyme Q10 (0, 12.5, 50, 200, 400 or 800 μM) were added to the cells at the same time. 24 hours to 72 hours post-treatment, frequency and viability of immune cell subpopulations was evaluated, as well as proliferative potential, cytokine secretion, and inhibitory receptor surface expression.
The viability of human immune cell subpopulations within PHA-stimulated or unstimulated PBMCs concurrently treated with Coenzyme Q10 was also determined. Cells were treated with 0, 12.5, 50, 200, 400 or 800 μM Coenzyme Q10 for 24 hours. Cell populations and viability was determined by flow cytometry using combinational staining of surface markers using Annexin V/7 AAD stains. Cells from 5 healthy donors were evaluated. Total, cytotoxic and helper T cell viability after treatment with increasing Coenzyme Q10 concentrations show T cell viability increased in response to Coenzyme Q10. FIG. 17A. […]

human PBMCs (T cells) [2] = experiment: Frequency of immune cell populations within PBMCs by flow cytometry; format: cell-based; conditions: 0-800 μM, 24 hours, dose dependent; greater effect in PHA-stimulated than unstimulated cells
Protocol: as §1
The frequency of different immune cell populations within PHA stimulated or unstimulated human PBMCs concurrently treated with Coenzyme Q10 (0, 12.5, 50, 200, 400 or 800 μM) was evaluated by flow cytometry. 24 hours post treatment, PBMCs were analyzed for the surface markers CD3/CD8, CD3/CD4, CD3/CD56, or CD19/CD14. Frequency of immune cell subtypes was quantified by percentage of cells gated for T cells (CD3/CD8/CD4), natural killer T cells (NKT), natural killer (NK) cells, B cells, and monocytes. Cells from 5 healthy donors were tested.

IL-2 = experiment: Cytokine ELISA in PBMC supernatants; format: cell-based, human; conditions: during PHA activation, various concentrations of Coenzyme Q10
Protocol: (§2) Cytokines were measured in the PBMCs according to the manufacturer's protocol for R&D Quantikine ELISA kits (R&D Systems, Inc., Minneapolis, Minn.) specific to each cytokine. PBMCs were collected from 3 donors (D003F, D004F and D005F).

interferon-γ (IFN-γ) = experiment: Cytokine ELISA in PBMC supernatants; format: cell-based, human; conditions: during PHA activation, various concentrations of Coenzyme Q10
Protocol: as §2

IL-10 = experiment: Cytokine ELISA in PBMC supernatants; format: cell-based, human; conditions: during PHA activation, various concentrations of Coenzyme Q10
Protocol: as §2

[3] = Body weight of C57BL/6 mice with Pan02 tumors; format: in vivo, mouse; conditions: 25, 50 or 100 mg/kg i.p. twice per day for 21 days
Protocol: The body weight of C57BL/6 mice implanted with murine Pan02 pancreatic cancer cells and treated with Coenzyme Q10 was also evaluated. Tumors with mean volume of 100 mm^3 were treated twice per day with vehicle control or Coenzyme Q10 at 25, 50 or 100 mg/kg administered intraperitoneally for 21 days. Body weight was measured every two days for the first 5 days, and then twice per week.

CTLA-4 = experiment: Inhibitory receptor surface expression on T cells within PBMCs; format: cell-based, human; conditions: PHA-stimulated T cells, 24 hours, dose dependent
Protocol: (§3) Expression of the inhibitory receptor proteins PD-1 and CTLA-4 on the surface of T cells within PBMCs was also determined. The cells were treated with Coenzyme Q10 for 24 hours. Expression of immune checkpoint receptors was measured by staining cells with phenotypic markers for CD3/CD8, or CD3/CD4 in combination with antibodies against PD-1 or CTLA-4. Live cells were identified as 7 AAD negative lymphocytes followed by T cell phenotype characterization of total CD3+ T cells, cytotoxic T cells, or helper T cells. PD-1 or CTLA-4 cell surface expression was measured as mean fluorescence intensity on live T cells. Cells from three donors were tested. As shown in FIGS. 20A and 20B, Coenzyme Q10 decreased PD-1 and CTLA-4 expression on the surface of PHA-stimulated T cells in a dose dependent manner.

PD-1 = experiment: as above; format: cell-based, human; conditions: PHA-stimulated T cells, 24 hours, dose dependent
Protocol: as §3

[4] = system: CD3 positive murine T cells within Balb/c PBMCs; experiment: Viability of murine CD3 positive T cells within PBMCs; format: cell-based, mouse; conditions: 0-800 μM, 24 hours, dose-dependent, non-stimulated and PHA-stimulated cells
Protocol: The effects of Coenzyme Q10 on murine immune cells were also evaluated to determine whether Coenzyme Q10 has similar effects as those described above for human immune cells. For example, the viability of murine CD3 positive T cells within PHA-stimulated or unstimulated Balb/c PBMCs was determined. Cells were concurrently treated with Coenzyme Q10 (0, 12.5, 50, 200, 400 or 800 μM) for 24 hours and analyzed by flow cytometry using surface marker antibody for αCD3 and viability stains Annexin V/7AAD. CD3 positive and CD3 negative cell populations were identified within total cell population excluding debris, and viability was determined by plotting Annexin V-FITC vs. 7AAD. Two experiments using two different pools of Balb/c PBMCs and one experiment using C57B1/6 PBMCs were conducted. As shown in FIGS. 21A and 21B, Coenzyme Q10 increased the viability of CD3 positive murine T cells in a dose-dependent manner for both non-stimulated and PHA-stimulated cells.

[5] = system: colon (HT29) cancer cells; experiment: mRNA expression of PD1, PD-L1 and PD-L2 in cancer cells treated with Coenzyme Q10; format: cell-based, human; conditions: 50 μM Coenzyme Q10, relative to untreated cells (p<0.05; n=3)
Protocol: (§4) Levels of mRNA expression of the immune checkpoints PD1, PD-L1 and PD-L2 were determined in human breast (MDA-MB231), prostate (LnCAP), ovarian (SKOV-3), colon (HT29), lung (A549), liver (Huh-7), and pancreatic (MIA PaCa-2) cancer cells treated with 50 μM Coenzyme Q10, 100 μM Coenzyme Q10, or the IC50 of Coenzyme Q10 for each cell line.

[6] = system: breast (MDA-MB231), prostate (LnCAP), ovarian (SKOV-3), colon (HT29), lung (A549), liver (Huh-7), and pancreatic (MIA PaCa-2) cancer cells; experiment: mRNA expression of PD1, PD-L1 and PD-L2 in cancer cells treated with Coenzyme Q10 (other treatment groups); format: cell-based, human; conditions: 50 μM, 100 μM or IC50 of Coenzyme Q10; all groups other than PD-L1 in HT29 at 50 μM
Protocol: as §4

In the case of COC1=C(OC)C(=O)C(C/C=C(\C)CC/C=C(\C)CC/C=C(\C)CC/C=C(\C)CC/C=C(\C)CC/C=C(\C)CC/C=C(\C)CC/C=C(\C)CC/C=C(\C)CCC=C(C)C)=C(C)C1=O [Coenzyme Q10], the “T cell viability (total, cytotoxic and helper T cells)” value (human PBMCs (T cells) [1]) is reported as “increased”, the “Frequency of cytotoxic T cells” value (human PBMCs (T cells) [2]) is reported as “increased” and the “Frequency of helper T cells” value (human PBMCs (T cells) [2]) is reported as “increased”. For the same compound, the “Frequency of total T cells” value (human PBMCs (T cells) [2]) was “increased”, the “IL-2 level in supernatant” value (IL-2) was “increased” and the “IFN-γ level in supernatant” value (interferon-γ (IFN-γ)) was “increased”. The “IL-10 level in supernatant” value (IL-10) was “dose-dependently decreased”, the “Effect on body weight” value [3] was “no significant effect” and the “CTLA-4 expression on the surface of T cells (mean fluorescence intensity)” value (CTLA-4) was “decreased”. The “PD-1 expression on the surface of T cells (mean fluorescence intensity)” value (PD-1) was “decreased”, the “Viability of CD3 positive murine T cells” value [4] was “increased” and the “PD-L1 mRNA expression” value [5] was “significant increase”. For the same compound, the “PD1, PD-L1 and PD-L2 mRNA expression, other treatment groups” value [6] was “no significant differences”.
